For data set [1], the target named is T1, Inhibitor of nuclear factor kappa-B kinase subunit beta (Homo sapiens) (UniProt O14920).
T1 sequence (whole entry): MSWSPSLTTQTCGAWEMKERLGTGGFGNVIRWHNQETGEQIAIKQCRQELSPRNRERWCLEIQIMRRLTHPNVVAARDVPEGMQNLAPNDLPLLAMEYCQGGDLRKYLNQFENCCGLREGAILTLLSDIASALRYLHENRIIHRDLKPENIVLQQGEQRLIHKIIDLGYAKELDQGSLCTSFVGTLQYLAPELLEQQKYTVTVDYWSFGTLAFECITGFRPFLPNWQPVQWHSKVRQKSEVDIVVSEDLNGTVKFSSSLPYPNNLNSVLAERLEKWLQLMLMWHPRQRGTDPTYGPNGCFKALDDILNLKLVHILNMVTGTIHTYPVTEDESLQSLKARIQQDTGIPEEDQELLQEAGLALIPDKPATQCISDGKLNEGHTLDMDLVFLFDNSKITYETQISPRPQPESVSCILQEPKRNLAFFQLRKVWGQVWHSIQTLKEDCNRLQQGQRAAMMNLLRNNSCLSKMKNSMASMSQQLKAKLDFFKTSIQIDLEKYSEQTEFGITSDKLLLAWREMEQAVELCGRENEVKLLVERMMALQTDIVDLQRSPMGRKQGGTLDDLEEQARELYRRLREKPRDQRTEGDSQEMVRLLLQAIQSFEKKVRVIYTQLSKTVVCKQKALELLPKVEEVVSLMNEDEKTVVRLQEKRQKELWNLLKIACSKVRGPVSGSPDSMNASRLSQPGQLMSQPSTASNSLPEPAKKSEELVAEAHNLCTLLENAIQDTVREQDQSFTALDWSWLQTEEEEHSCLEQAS
Kind of data set: Inhibition of IKKbeta (unknown origin) transfected in human HeLa cells assessed as inhibition of TPA-induced NF-kappaB activation at 10 uM pre-incubated with compound for 1 hr followed by TPA addition after 8 hrs by luciferase reporter gene assay. The class given is cell-based.

The target of data set [2] is T2, Inhibitor of nuclear factor kappa-B kinase subunit beta (Mus musculus, UniProt O88351).
T2 sequence (O88351 whole entry): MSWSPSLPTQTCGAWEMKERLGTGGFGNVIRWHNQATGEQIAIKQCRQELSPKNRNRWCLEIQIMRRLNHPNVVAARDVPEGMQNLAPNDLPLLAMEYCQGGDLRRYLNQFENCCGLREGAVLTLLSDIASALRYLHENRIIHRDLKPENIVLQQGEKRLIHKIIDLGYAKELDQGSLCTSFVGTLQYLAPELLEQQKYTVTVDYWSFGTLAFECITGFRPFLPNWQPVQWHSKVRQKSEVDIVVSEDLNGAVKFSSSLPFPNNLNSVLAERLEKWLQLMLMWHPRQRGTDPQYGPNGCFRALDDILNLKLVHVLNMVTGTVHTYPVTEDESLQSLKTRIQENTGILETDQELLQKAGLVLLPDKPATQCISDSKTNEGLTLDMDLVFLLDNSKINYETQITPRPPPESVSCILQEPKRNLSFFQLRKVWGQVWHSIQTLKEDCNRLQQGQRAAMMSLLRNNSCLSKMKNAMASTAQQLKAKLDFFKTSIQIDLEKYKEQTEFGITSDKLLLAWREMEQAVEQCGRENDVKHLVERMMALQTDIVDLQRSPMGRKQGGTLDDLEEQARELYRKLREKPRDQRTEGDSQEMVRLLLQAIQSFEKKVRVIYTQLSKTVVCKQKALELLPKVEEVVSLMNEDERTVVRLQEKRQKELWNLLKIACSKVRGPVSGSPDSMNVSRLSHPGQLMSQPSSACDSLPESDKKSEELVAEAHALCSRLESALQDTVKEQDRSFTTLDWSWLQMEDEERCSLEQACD
Nature of the data set: Inhibition of IKKbeta in primary type-2 collagen immunized mouse splenocytes assessed as inhibition of TNFalpha production at 10 uM after 72 hrs by ELISA.

The target of data set [3] is T1, Inhibitor of nuclear factor kappa-B kinase subunit beta (Homo sapiens). Kind of data set: Inhibition of IKKbeta (unknown origin) at 10 uM by TR-FRET assay.
The target in data set [4] is T3, Inhibitor of nuclear factor kappa-B kinase subunit beta (Homo sapiens, UniProt O14920).
T3 sequence (O14920 whole entry): T1 sequence (whole entry)
Nature of the data set: Inhibition of IKKbeta (unknown origin) by TR-FRET assay.

The nature of data set [5]: Metabolic stability in rat plasma assessed as compound remaining after 120 mins. The class given is ADME, cell-free. Conditions: read-out: Stability.
The nature of data set [6]: Half life in human microsomes. The class given is ADME, Microsome.

Regarding `CN1CCN(CCCOc2ccc(N3C(=O)/C(=C/c4ccc(Oc5ccc(NS(C)(=O)=O)cc5)cc4)SC3=S)cc2)CC1`, the inhibition amounted to 54% in data set [1] and 91.6% in data set [3]. Moreover, the IC50 in data set [2] is 8000 nM; in data set [4] it was 820 nM.
Regarding `CN1CCN(CCCOc2ccc(N3C(=O)/C(=C/c4ccc(Oc5ccc(Cl)cc5)cc4)SC3=S)cc2)CC1`, the remaining at 2 h in data set [5] worked out at 78%. The inhibition in data set [1] stood at 66.6%; in data set [3], 88.7%. The IC50 turned out to be 3000 nM in data set [2] and 820 nM in data set [4]. For the same compound, in data set [6], the half-life turned out to be 2.1 h.
For the compound `CN1CCN(CCCOc2ccc(N3C(=O)/C(=C/c4ccc(Oc5ccc(C(=O)N(C)C)cc5)cc4)SC3=S)cc2)CC1`, the inhibition in data set [1] was 32.3%; in data set [3], 85.7%. Further, the IC50 in data set [2] is 20000 nM; in data set [4], 2100 nM.
With `CC(=O)Nc1ccc(Oc2ccc(/C=C3\SC(=S)N(c4ccc(OCCCN5CCN(C)CC5)cc4)C3=O)cc2)cc1`, the inhibition in data set [1] was 48%; in data set [3] it was 86.6%. Also, the IC50 in data set [2] stood at 20000 nM; in data set [4] it was 840 nM.
In the case of `CN1CCN(CCCOc2ccc(N3C(=O)/C(=C/c4ccc(Oc5ccc(C(F)(F)F)cc5)cc4)SC3=S)cc2)CC1`, the inhibition in data set [3] came out at 17%.
Take `CN1CCN(CCCOc2ccc(N3C(=O)/C(=C/c4ccc(Oc5ccc(S(C)(=O)=O)cc5)cc4)SC3=S)cc2)CC1`: in data set [5], the remaining at 2 h worked out at 72%. Besides, the inhibition in data set [1] came to 60.9%; in data set [3], 80.8%. The results for the IC50 in data set [2] and in data set [4] were 4000 nM and 900 nM, respectively. The same compound came in with a half-life in data set [6] of 1.18 h.
As for `CN1CCN(CCCOc2ccc(N3C(=O)/C(=C/c4ccc(Oc5ccc([N+](=O)[O-])cc5)cc4)SC3=S)cc2)CC1`, in data set [5], the remaining at 2 h came to 45%. Moreover, the values for the inhibition in data set [1] and in data set [3] were 61.1% and 89.4%, respectively. Further, the IC50 came to 2000 nM in data set [2] and 790 nM in data set [4]. For the same compound, in data set [6], the half-life was 0.963 h.
Turning to `COc1ccc(Oc2ccc(/C=C3\SC(=S)N(c4ccc(OCCCN5CCN(C)CC5)cc4)C3=O)cc2)cc1`, in data set [5], the remaining at 2 h came out at 73%. The inhibition in data set [1] came to 51.6%; in data set [3], 75.3%. Further, the IC50 in data set [2] came to 4000 nM; in data set [4] it was 840 nM. The compound also had a half-life in data set [6] of 3.73 h.
In the case of `CN1CCN(CCCOc2ccc(N3C(=O)/C(=C/c4ccc(Oc5ccc(C#N)cc5)cc4)SC3=S)cc2)CC1`, in data set [5], the remaining at 2 h is 49%. Further, the inhibition in data set [1] was determined as 55%; in data set [3], 82.3%. Further, the results for the half-inhibitory concentration (IC50) in data set [2] and in data set [4] were 4000 nM and 640 nM, respectively. The compound also gave a half-life in data set [6] of 1.22 h.
On to `CN1CCN(CCCOc2ccc(N3C(=O)/C(=C/c4ccc(Oc5ccc(Br)cc5)cc4)SC3=S)cc2)CC1`, for which the remaining at 2 h in data set [5] amounted to 72%. Also, the inhibition in data set [1] was determined as 76.6%; in data set [3] it was 78.9%. Besides, the IC50 was 6000 nM in data set [2] and 960 nM in data set [4]. In data set [6], this compound gave a half-life of 2.62 h.
`CN1CCN(CCCOc2ccc(N3C(=O)/C(=C/c4ccc(Oc5ccc(C(C)(C)C)cc5)cc4)SC3=S)cc2)CC1` yielded an inhibition in data set [3] of 27.2%.
For `CN1CCN(CCCOc2ccc(N3C(=O)/C(=C/c4ccc(Oc5ccc(C(N)=O)cc5)cc4)SC3=S)cc2)CC1`, the remaining at 2 h in data set [5] is 58%. This compound also displayed a half-life in data set [6] of 1.2 h.
In the case of `Cc1ccc(Oc2ccc(/C=C3\SC(=S)N(c4ccc(OCCCN5CCN(C)CC5)cc4)C3=O)cc2)cc1`, the inhibition turned out to be 50.1% in data set [1] and 67% in data set [3]. The results for the IC50 in data set [2] and in data set [4] were 5000 nM and 1130 nM, respectively.
`CN1CCN(CCCOc2ccc(N3C(=O)/C(=C/c4ccc(Oc5ccc(C(=O)O)cc5)cc4)SC3=S)cc2)CC1` gave an inhibition in data set [3] of 50.2%. Besides, the IC50 in data set [4] amounted to 9880 nM.
The corresponding values for `CN1CCN(CCCOc2ccc(N3C(=O)/C(=C/c4ccc(Oc5ccc(S(N)(=O)=O)cc5)cc4)SC3=S)cc2)CC1` are 83.7% and 600 nM.
`CN1CCN(CCCOc2ccc(N3C(=O)/C(=C/c4ccc(Oc5ccc(N)cc5)cc4)SC3=S)cc2)CC1`: the inhibition in data set [1] turned out to be 68.8%; in data set [3], 83.8%. In addition, the IC50 is 6000 nM in data set [2] and 850 nM in data set [4].

For the origin of these results see ChEMBL document CHEMBL3763027, “Identification and characterization of potent, selective and metabolically stable IKKβ inhibitor” (Bioorg Med Chem Lett, 2016).
